The values that follow come from patent US11324698B2, “Sterically stabilized carrier for aerosol therapeutics, compositions and methods for treating the respiratory tract of a mammal” (VGSK Technologies, Inc., priority 2003, dated 2022).

The conditions of data set [1]: BUD alone; cited from earlier work.
In data set [2] the test system is sensitized mice. Kind of data set: Preliminary dose-response study of daily nebulized BUD in sensitized mice. It is filed as in vivo. The settings on record: daily nebulization. The method, then: The dose of BUD chosen was based on preliminary dose-response studies with 5 to 50 μg of BUD as follows.
Each day, 5, 10, 15, 20 or 50 μg of BUD was administered via nebulization to groups of sensitized mice, and the dose-dependent effects on the inflammatory parameters were evaluated.

On to `CCCC1O[C@@H]2C[C@H]3[C@@H]4CCC5=CC(=O)C=C[C@]5(C)[C@H]4[C@@H](O)C[C@]3(C)[C@]2(C(=O)CO)O1` (stereo partly drawn) [Daily BUD, budesonide], for which the “effective life in the lungs” value in data set [1] was “no more than one day”. Besides, in data set [2] (20 μg/ml dose of BUD, histopathologic examination), the “toxicity to the spleen, liver, bone morrow or gastrointestinal tract” value is listed as “without evidence of toxicity”. Further, the “granulomas or abnormalities in tissues” value in data set [2] (preliminary dose-response study) is recorded as “no granulomas or abnormalities in any of the tissues evaluated”.
